Measurements reported in patent publication US12508247B2, “Controlled release injectable ondansetron formulations” (SHILPA MEDICARE LIMITED, priority 2019, dated 2025).
Read-outs that look alike come from different tables or passages of the source.

Assay: Fasting single dose PK study in dogs: plasma ondansetron after intravenous bolus of marketed ondansetron injection (reference)
Assay type: in vivo
Conditions: fasted male Beagle dogs; for C0: 2 mg/mL solution; for Vd: read-out: Vss
Experimental: Male Beagle dogs were fasted are divided into six groups as G1, G2, G3, G4, G5 and G6 each consisting of four dogs.
Blood samples were collected from each IM route dogs at 0 (pre-dose), 0.5, 1, 2, 4, 8, 16, 24, 36, 48, 72, 96, 120, 144, 168 and 240 h post-dose; for IV route dogs, blood samples were collected at 0 (pre-dose), 0.167, 0.33, 0.5, 0.75, 1, 2, 4, 8, 12 and 24 h post-dose and analysed for ondansetron in plasma and calculated using the noncompartmental analysis tool of the validated Phoenix WinNonlin software (Version 8.0). The summary of plasma pharmacokinetics parameters of ondansetron for G1 and G2 animals is summarized in Table—2 (FIGS. 1, 2) and G3, G4, G5 and G6 (FIGS. 3, 4, 5 and 6) animals is summarized in Table— 3.

C0 (G1, IV bolus 4 mg/dog): 110 ng/mL
AUC(0-inf) (G1, IV bolus 4 mg/dog): 107 ng·h/mL
AUC(0-t) (G1, IV bolus 4 mg/dog): 106 ng·h/mL
MRT last (G1, IV bolus 4 mg/dog): 1.12 h
clearance (G1, IV bolus 4 mg/dog): 644 mL/min
half-life (G1, IV bolus 4 mg/dog): 0.878 h
Vd (G1, IV bolus 4 mg/dog): 40.3 L
C0 (G2, IV bolus 24 mg/dog): 828 ng/mL
AUC(0-inf) (G2, IV bolus 24 mg/dog): 716 ng·h/mL
AUC(0-t) (G2, IV bolus 24 mg/dog): 715 ng·h/mL
MRT last (G2, IV bolus 24 mg/dog): 1.17 h
clearance (G2, IV bolus 24 mg/dog): 563 mL/min
half-life (G2, IV bolus 24 mg/dog): 1.28 h
Vd (G2, IV bolus 24 mg/dog): 36.3 L
Compound: Cc1nccn1CC1CCc2c(c3ccccc3n2C)C1=O (centres unmarked) [Ondansetron]
